From ChEMBL document CHEMBL1124550, “Replacement of the 3'-CH group by nitrogen in the carbocyclic analogue of thymidine” (J Med Chem, 1989) come the findings set out here.

In one experiment the test system is SK-MES-1. Briefly: Antitumor activity against lung carcinoma cell line (SK-MES-1). Type of experiment: functional, cell-based. The note with it: Homo sapiens.
A further experiment concerns HT-29. Description: Antitumor activity against colon carcinoma cell line (HT-29). Format: functional, cell-based. The settings on record: Homo sapiens.
Experiment [1] relates to Human immunodeficiency virus 1. Description: Antiviral activity against Human immunodeficiency virus 1 (HIV-1) up to 100 uM concentration; inactive. Type of experiment: functional, organism-based.
A further experiment deals with Human alphaherpesvirus 1. Briefly: Antiviral activity against Herpes simplex virus type 1 (HSV-1) up to 100 uM concentration; inactive. Type of experiment: functional, organism-based.
Another experiment has as its system MCF7. Briefly: Antitumor activity against breast carcinoma cell line (MCF-7M). The settings on record: Homo sapiens. Type of experiment: functional, cell-based.

The IC50 is the concentration needed to halve the response being measured.

In the case of `O=c1[nH]cc(F)c(=O)[nH]1` [FLUOROURACIL], the IC50 with SK-MES-1 came to 310 nM; in the experiment with HT-29, 150 nM.
As to `Cc1cn([C@@H]2C[C@H](CO)N(N=O)C2)c(=O)[nH]c1=O`, the concentration for half-maximal inhibition (IC50) result (in experiment [1]; with Human alphaherpesvirus 1) was “Not Active” each time.
Consider `Cc1cn(C2C[C@@H](CO)N(C#N)C2)c(=O)[nH]c1=O` (some centres undefined), for which the IC50 entry (in experiment [1]; in the experiment with Human alphaherpesvirus 1) was “Not Active” each time.
For `COC(=O)N1CC(n2cc(C)c(=O)[nH]c2=O)C[C@H]1CO` (some centres undefined), the IC50 entry (in experiment [1]; with Human alphaherpesvirus 1) was “Not Active” throughout.
`Cc1cn(C2C[C@@H](CO)N(CCC#N)C2)c(=O)[nH]c1=O` (some centres undefined): the concentration for half-maximal inhibition (IC50) entry (in experiment [1]; in the experiment on Human alphaherpesvirus 1) was “Not Active” in each case.
For `Cc1cn([C@@H]2C[C@H](CO)N(O)C2)c(=O)[nH]c1=O`, the IC50 result in experiment [1] was “Not Active”; with Human alphaherpesvirus 1, “Not Active”; with SK-MES-1, 6910 nM; in the experiment with HT-29, 14000 nM; in the experiment with MCF7 it was 80 nM.
As for `Cc1cn(C2C[C@@H](CO)N(C=O)C2)c(=O)[nH]c1=O` (some centres undefined), the IC50 entry (in experiment [1]; with Human alphaherpesvirus 1) was “Not Active” each time.
`Cc1cn(C2CNC(CO)C2)c(=O)[nH]c1=O` (centres undefined): the IC50 result (in experiment [1]; with Human alphaherpesvirus 1) was “Not Active” throughout.
